Among the data in patent publication US10385022B2, “3-amino-pyridines as GPBAR1 agonists” (HOFFMANN-LA ROCHE INC., priority 2011, dated 2019) are EC50 values, retold here.

The experiment deals with human GPBAR1 receptor (Homo sapiens (Human), UniProt Q8TDU6). Briefly: functional cAMP assay in CHO-dhfr(minus) cells expressing human GPBAR1 receptors. The settings on record: CHO-dhfr(minus) cells expressing human GPBAR1, 30 min at 30° C. It is filed as cell-based. The method, then: The final clone was verified by DNA sequence analysis. The plasmid was transfected into CHO cells deficient in dihydrofolate reductase activity (CHO-dhfr-) using Lipofectamine plus (Invitrogen). Clones were isolated in limited dilution conditions and identified by activities in the cAMP assay using lithocholic acid as agonist.
EC50 values were determined using Activity Base analysis (ID Business Solution, Limited). […] Specificity for GPBAR1 was tested in non-transfected CHO cells in the same assay as above.

Structures are written as SMILES. Counter-ions that a name gives are not always drawn.

Sequence of human GPBAR1 receptor (Q8TDU6 whole entry): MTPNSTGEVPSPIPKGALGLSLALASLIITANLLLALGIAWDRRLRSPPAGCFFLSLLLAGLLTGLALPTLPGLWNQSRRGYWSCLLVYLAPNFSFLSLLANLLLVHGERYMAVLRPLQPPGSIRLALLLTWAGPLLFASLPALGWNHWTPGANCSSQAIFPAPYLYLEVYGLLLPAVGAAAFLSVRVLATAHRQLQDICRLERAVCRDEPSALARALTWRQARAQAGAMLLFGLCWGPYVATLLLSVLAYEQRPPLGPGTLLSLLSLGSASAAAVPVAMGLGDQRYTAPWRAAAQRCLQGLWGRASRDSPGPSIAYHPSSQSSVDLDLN

In the case of `COc1cc(F)ccc1-c1ccncc1N(CC1CCCO1)C(=O)c1cc(C(F)(F)F)cc(S(C)(=O)=O)c1` (single isomer, unassigned; (+)) [Example 232, (+)-N-[4-(4-Fluoro-2-methoxy-phenyl)-pyridin-3-yl]-3-methanesulfonyl-N-[1-(tetrahydro-furan-2-yl)methyl]-5-trifluoromethyl-benzamide], the EC50 worked out at 335 nM. Turning to `COc1cc(F)ccc1-c1ccncc1N(CC1CCCCO1)C(=O)c1cc(C(F)(F)F)cc(S(C)(=O)=O)c1` (single isomer, unassigned; (+)) [Example 291, (+)-N-[4-(4-Fluoro-2-methoxy-phenyl)-pyridin-3-yl]-3-methanesulfonyl-N-[1-(tetrahydro-pyran-2-yl)methyl]-5-trifluoromethyl-benzamide], the response was half-maximal at 2840 nM (EC50).

`COc1cc(F)ccc1-c1ccncc1N(CC1CCCO1)C(=O)c1cc(C(F)(F)F)cc(S(C)(=O)=O)c1` (single isomer, unassigned; (-)) [Example 233, (−)-N-[4-(4-Fluoro-2-methoxy-phenyl)-pyridin-3-yl]-3-methanesulfonyl-N-[1-(tetrahydro-furan-2-yl)methyl]-5-trifluoromethyl-benzamide] returned an EC50 of 54 nM. Regarding `COc1cc(F)ccc1-c1ccncc1N(CC1CCCCO1)C(=O)c1cc(C(F)(F)F)cc(S(C)(=O)=O)c1` (single isomer, unassigned; (-)) [Example 290, (−)-N-[4-(4-Fluoro-2-methoxy-phenyl)-pyridin-3-yl]-3-methanesulfonyl-N-[1-(tetrahydro-pyran-2-yl)methyl]-5-trifluoromethyl-benzamide], a half-maximal effect (EC50) was put at 1740 nM.

The compound `Cc1ccccc1-c1ccncc1N(C)C(=O)c1cc(C(F)(F)F)cc(C(F)(F)F)c1` [Example 1, N-Methyl-N-(4-o-tolyl-pyridin-3-yl)-3,5-bis-trifluoromethyl-benzamide] showed an EC50 of 22 nM. For the compound `Cc1ccccc1-c1ccncc1N(C)C(=O)c1cccc(C(F)(F)F)c1` [Example 2, N-Methyl-N-(4-o-tolyl-pyridin-3-yl)-3-trifluoromethyl-benzamide], a half-maximal effect (EC50) was put at 727 nM. As to `Cc1ccccc1-c1ccncc1N(C)C(=O)c1cccc(Cl)c1` [Example 3, N-Methyl-N-(4-o-tolyl-pyridin-3-yl)-3-chloro-benzamide], the EC50 came out at 902 nM. As for `Cc1ccccc1-c1ccncc1N(C)C(=O)c1cc(C(F)(F)F)ccc1F` [Example 4, 2-Fluoro-N-methyl-N-(4-o-tolyl-pyridin-3-yl)-5-trifluoromethyl-benzamide], the figure is 247 nM.

For the compound `Cc1ccccc1-c1ccncc1N(C)C(=O)c1ccc(F)c(C(F)(F)F)c1` [Example 5, 4-Fluoro-N-methyl-N-(4-o-tolyl-pyridin-3-yl)-5-trifluoromethyl-benzamide], the EC50 came out at 112 nM. In the case of `Cc1ccccc1-c1ccncc1N(C)C(=O)c1cc(F)cc(F)c1` [Example 9, 3,5-Difluoro-N-methyl-N-(4-o-tolyl-pyridin-3-yl)-benzamide], the EC50 is 1230 nM.

As to `Cc1ccccc1-c1ccncc1N(C)C(=O)c1ccc(Cl)c(Cl)c1` [Example 10, 3,4-Dichloro-N-methyl-N-(4-o-tolyl-pyridin-3-yl)-benzamide], the EC50 worked out at 238 nM.

Compound `Cc1ccccc1-c1ccncc1N(C)C(=O)c1ccc(F)c(Cl)c1` [Example 11, 3-Chloro-4-fluoro-N-methyl-N-(4-o-tolyl-pyridin-3-yl)-benzamide] gave an EC50 of 406 nM. In turn, `Cc1ccccc1-c1cc(Cl)ncc1N(C)C(=O)c1cc(C(F)(F)F)cc(C(F)(F)F)c1` [Example 12, N-(6-Chloro-4-o-tolyl-pyridin-3-yl)-N-methyl-3,5-bis-trifluoromethyl-benzamide] registered an EC50 of 349 nM. `Cc1ccccc1-c1cc(Cl)ncc1N(C)C(=O)c1cc(Cl)cc(Cl)c1` [Example 13, 3,5-Dichloro-N-(6-chloro-4-o-tolyl-pyridin-3-yl)-N-methyl-benzamide]: it took 580 nM to reach a half-maximal effect (EC50). Take `COc1cc(-c2ccccc2C)c(N(C)C(=O)c2cc(C(F)(F)F)cc(C(F)(F)F)c2)cn1` [Example 14, N-(6-Methoxy-4-o-tolyl-pyridin-3-yl)-N-methyl-3,5-bis-trifluoromethyl-benzamide]: the EC50 was 395 nM. The compound `CNc1cc(-c2ccccc2C)c(N(C)C(=O)c2cc(C(F)(F)F)cc(C(F)(F)F)c2)cn1` [Example 15, N-Methyl-N-(6-methylamino-4-o-tolyl-pyridin-3-yl)-3,5-bis-trifluoromethyl-benzamide] showed an EC50 of 323 nM. With `Cc1ccccc1-c1cc(N)ncc1N(C)C(=O)c1cc(C(F)(F)F)cc(C(F)(F)F)c1` [Example 16], the EC50 was 184 nM. As for `Cc1ccccc1-c1cc(N2CCN(S(C)(=O)=O)CC2)ncc1N(C)C(=O)c1cc(C(F)(F)F)cc(C(F)(F)F)c1` [Example 17, N-[6-(4-Methanesulfonyl-piperazin-1-yl)-4-o-tolyl-pyridin-3-yl]-N-methyl-3,5-bis-trifluoromethyl-benzamide], the figure is 336 nM; as for `COCCN(C)c1cc(-c2ccccc2C)c(N(C)C(=O)c2cc(C(F)(F)F)cc(C(F)(F)F)c2)cn1` [Example 18, N-{6-[(2-Methoxy-ethyl)-methyl-amino]-4-o-tolyl-pyridin-3-yl}-N-methyl-3,5-bis-trifluoro methyl-benzamide], 850 nM; as for `Cc1ccccc1-c1cc(C#N)ncc1N(C)C(=O)c1cc(C(F)(F)F)cc(C(F)(F)F)c1` [Example 19, N-(6-Cyano-4-o-tolyl-pyridin-3-yl)-N-methyl-3,5-bis-trifluoromethyl-benzamide], 340 nM. With `CC1CCCCN1c1ccncc1N(C)C(=O)c1cc(C(F)(F)F)cc(C(F)(F)F)c1` (centres unmarked) [Example 20, N-Methyl-N-(2-methyl-3,4,5,6-tetrahydro-2H-[1,4′]bipyridinyl-3′-yl)-3,5-bis-trifluoromethyl-benzamide], the EC50 was determined as 143 nM. Regarding `CC1CCCCN1c1ccncc1N(C)C(=O)c1cc(Cl)cc(Cl)c1` (centres unmarked) [Example 21, 3,5-Dichloro-N-methyl-N-(2-methyl-3,4,5,6-tetrahydro-2H-[1,4′]bipyridinyl-3′-yl)-benzamide hydrochloride salt], the EC50 came to 388 nM. The compound `COc1cc(F)ccc1-c1ccncc1N(Cc1ncco1)C(=O)c1cc(C(F)(F)F)cc(S(C)(=O)=O)c1` [Example 22, N-[4-(4-Fluoro-2-methoxy-phenyl)-pyridin-3-yl]-3-methanesulfonyl-N-oxazol-2-ylmethyl-5-trifluoromethyl-benzamide] registered an EC50 of 35 nM. `Cc1cc(F)ccc1-c1ccncc1N(C)C(=O)c1cc(C(F)(F)F)cc(C(F)(F)F)c1` [Example 23, N-[4-(4-Fluoro-2-methyl-phenyl)-pyridin-3-yl]-N-methyl-3,5-bis-trifluoromethyl-benzamide] had an EC50 of 38 nM.

`Cc1cc(F)ccc1-c1ccncc1N(C)C(=O)c1cc(Cl)cc(Cl)c1` [Example 24, 3,5-Dichloro-N-[4-(4-fluoro-2-methyl-phenyl)-pyridin-3-yl]-N-methyl-benzamide]: the EC50 was 146 nM. As to `CN(C(=O)c1cc(C(F)(F)F)cc(C(F)(F)F)c1)c1cnccc1-c1ccccc1F` [Example 25, N-[4-(2-Fluoro-phenyl)-pyridin-3-yl]-N-methyl-3,5-bis-trifluoromethyl-benzamide], the EC50 amounted to 14 nM. The compound `Cc1ccc(-c2ccncc2N(C)C(=O)c2cc(C(F)(F)F)cc(C(F)(F)F)c2)c(C)c1` [Example 26, N-[4-(2,4-Dimethyl-phenyl)-pyridin-3-yl]-N-methyl-3,5-bis-trifluoromethyl-benzamide] yielded an EC50 of 686 nM. The value for `COc1ccc(-c2ccncc2N(C)C(=O)c2cc(C(F)(F)F)cc(C(F)(F)F)c2)c(C)c1` [Example 27, N-[4-(4-Methoxy-2-methyl-phenyl)-pyridin-3-yl]-N-methyl-3,5-bis-trifluoromethyl-benzamide] was 1050 nM.

As to `CN(C(=O)c1cc(C(F)(F)F)cc(C(F)(F)F)c1)c1cnccc1-c1ccccc1C(F)(F)F` [Example 28, N-Methyl-3,5-bis-trifluoromethyl-N-[4-(2-trifluoromethyl-phenyl)-pyridin-3-yl]-benzamide], it took 863 nM to reach a half-maximal effect (EC50). Take `COc1ccccc1-c1ccncc1N(C)C(=O)c1cc(C(F)(F)F)cc(C(F)(F)F)c1` [Example 29, N-[4-(2-Methoxy-phenyl)-pyridin-3-yl]-N-methyl-3,5-bis-trifluoromethyl-benzamide]: the EC50 stood at 11 nM. The value for `Cc1cc(Cl)ccc1-c1ccncc1N(C)C(=O)c1cc(C(F)(F)F)cc(C(F)(F)F)c1` [Example 30, N-[4-(4-Chloro-2-methyl-phenyl)-pyridin-3-yl]-N-methyl-3,5-bis-trifluoromethyl-benzamide] was 1620 nM; that for `CN(C(=O)c1cc(C(F)(F)F)cc(C(F)(F)F)c1)c1cnccc1-c1ccccc1OC(F)(F)F` [Example 31, N-Methyl-N-[4-(2-trifluoromethoxy-phenyl)-pyridin-3-yl]-3,5-bis-trifluoromethyl-benzamide] was 29 nM. The value for `COc1ncccc1-c1ccncc1N(C)C(=O)c1cc(C(F)(F)F)cc(C(F)(F)F)c1` [Example 32, N-(2-Methoxy-[3,4′]bipyridinyl-3′-yl)-N-methyl-3,5-bis-trifluoromethyl-benzamide] was 9 nM; that for `Cc1ncccc1-c1ccncc1N(C)C(=O)c1cc(C(F)(F)F)cc(C(F)(F)F)c1` [Example 33, N-Methyl-N-(2-methyl-[3,4′]bipyridinyl-3′-yl)-3,5-bis-trifluoromethyl-benzamide] was 349 nM.

The compound `Cc1cnccc1-c1ccncc1N(C)C(=O)c1cc(C(F)(F)F)cc(C(F)(F)F)c1` [Example 34, N-Methyl-N-(3′-methyl-[4,4′]bipyridinyl-3-yl)-3,5-bis-trifluoromethyl-benzamide] came in with an EC50 of 502 nM.
